Each compound was assayed against T1, AXL kinase (Homo sapiens, UniProt P30530) (assay: IC50 test on AXL kinase (Z′-LYTE FRET kinase activity detection)). Details: Z′-LYTE FRET peptide assay, 1 h reaction.
T1 construct: purchased Invitrogen PV4803
T1 sequence (P30530 26-894): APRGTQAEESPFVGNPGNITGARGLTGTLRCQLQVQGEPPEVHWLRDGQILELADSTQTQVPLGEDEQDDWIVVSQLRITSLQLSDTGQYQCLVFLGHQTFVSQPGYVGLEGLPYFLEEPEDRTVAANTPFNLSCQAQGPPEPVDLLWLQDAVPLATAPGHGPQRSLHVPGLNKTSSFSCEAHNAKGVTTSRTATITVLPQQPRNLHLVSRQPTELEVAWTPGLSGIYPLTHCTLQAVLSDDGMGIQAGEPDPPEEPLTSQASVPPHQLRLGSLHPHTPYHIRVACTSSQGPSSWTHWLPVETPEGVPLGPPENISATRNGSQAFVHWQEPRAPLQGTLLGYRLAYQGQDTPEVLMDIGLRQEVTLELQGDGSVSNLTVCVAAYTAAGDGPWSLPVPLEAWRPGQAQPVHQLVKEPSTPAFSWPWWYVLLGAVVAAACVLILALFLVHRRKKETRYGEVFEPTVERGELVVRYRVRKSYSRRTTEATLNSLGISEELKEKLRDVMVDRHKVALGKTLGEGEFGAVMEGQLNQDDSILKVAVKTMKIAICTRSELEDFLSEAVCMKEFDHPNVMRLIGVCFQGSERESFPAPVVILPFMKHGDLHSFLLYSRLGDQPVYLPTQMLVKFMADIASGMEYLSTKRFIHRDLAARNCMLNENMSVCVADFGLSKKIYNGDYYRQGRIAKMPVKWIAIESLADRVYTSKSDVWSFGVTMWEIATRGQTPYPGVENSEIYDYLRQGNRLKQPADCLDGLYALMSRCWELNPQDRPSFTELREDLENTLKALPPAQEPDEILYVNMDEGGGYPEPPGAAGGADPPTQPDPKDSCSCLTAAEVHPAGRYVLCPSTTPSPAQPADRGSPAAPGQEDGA
Assay type: biochemical
Description: Kinase activity detection: The activity of compounds on kinases was detected by a secondary reaction which used the Z′-LYTE™ technique (a detection using fluorescence, enzyme coupling, and based on differences in susceptibility of phosphorylated and non-phosphorylated polypeptides to proteolytic cleavage), followed the fluorescence resonance energy transfer (FRET) principle, and used Z′-LYTE™ FRET peptide substrates (Invitrogen, Z′-LYTE™ KINASE ASSAY KIT—TYR 2 PEPTIDE, PV3191). AXL kinase (invitrogen, PV4803) was diluted stepwise, FRET peptide was then added, followed by ATP, then by compounds at different concentrations, reacted for 1 h, site-specific proteases were then added to recognize and cleave non-phosphorylated FRET peptides, reacted for 1 h, and […] at 445 nm and 520 nm were detected using excitation wavelength of 400 nm.
`Cc1c(C(=O)Nc2ccc(Oc3ncnc4[nH]cc(-c5ccccc5)c34)c(F)c2)c(=O)c2cc(C3=CCCC3)ccc2n1C` [TL50160, 6-cyclopentenyl-N-(3-fluoro-4-((5-phenyl-7H-pyrrolo[2,3-d]pyrimidin-4-yl)oxy)phenyl)-1,2-dimethyl-4-oxo-1,4-dihydroquinoline-3-carboxamide] showed an IC50 of 4530 nM. `Cc1c(C(=O)Nc2ccc(Oc3ncnc4[nH]cc(-c5ccccc5)c34)c(F)c2)c(=O)c2cc(C3CCCC3)ccc2n1C` [TL50161, 6-cyclopentyl-N-(3-fluoro-4-((5-phenyl-7H-pyrrolo[2,3-d]pyrimidin-4-yl)oxy)phenyl)-1,2-dimethyl-4-oxo-1,4-dihydroquinoline-3-carboxamide] gave an IC50 of 195 nM. Compound `Cc1c(C(=O)Nc2ccc(Oc3ncnc4[nH]cc(-c5ccccc5)c34)c(F)c2)c(=O)c2cc(-c3ccccc3)ccc2n1C` [TL50163, N-(3-fluoro-4-(5-phenyl-7H-pyrrolo[2,3-d]pyrimidin-4-yloxy)phenyl)-1,2-dimethyl-4-oxo-6-phenyl-1,4-dihydroquinoline-3-carboxamide] has an IC50 of over 10000 nM. `C=C(C)c1ccc2c(c1)c(=O)c(C(=O)Nc1ccc(Oc3ncnc4[nH]cc(-c5ccccc5)c34)c(F)c1)c(C)n2C` [TL50167, N-(3-fluoro-4-(5-phenyl-7H-pyrrolo[2,3-d]pyrimidin-4-yloxy)phenyl)-1,2-dimethyl-4-oxo-6-(prop-1-en-2-yl)-1,4-dihydroquinoline-3-carboxamide] showed an IC50 of 324 nM. `Cc1c(C(=O)Nc2ccc(Oc3ncnc4[nH]cc(-c5ccccc5)c34)c(F)c2)c(=O)c2cc(-c3cnn(C4CCNCC4)c3)ccc2n1C` [TL50180] was tested, and the IC50 was over 10000 nM. In the case of `Cc1c(C(=O)Nc2ccc(Oc3ncnc4[nH]cc(-c5ccccc5)c34)c(F)c2)c(=O)c2cc3ccccc3cc2n1C` [TL50198, N-(3-fluoro-4-((5-phenyl-7H-pyrrolo[2,3-d]pyrimidin-4-yl)oxy)phenyl)-1,2-dimethyl-4-oxo-1,4-dihydrobenzo[g]quinoline-3-carboxamide], the IC50 is reported as over 10000 nM. In the case of `COc1ccc2c(c1)c(=O)c(C(=O)Nc1ccc(Oc3ncnc4[nH]cc(-c5ccccc5)c34)c(F)c1)c(C)n2C` [TL4800005, N-(3-fluoro-4-((5-phenyl-7H-pyrrolo[2,3-d]pyrimidin-4-yl)oxy)phenyl)-6-methoxy-1,2-dimethyl-4-oxo-1,4-dihydroquinoline-3-carboxamide], the IC50 is reported as 99 nM. `Cc1ccc2[nH]c(C)c(C(=O)Nc3ccc(Oc4ncnc5[nH]cc(-c6ccccc6)c45)c(F)c3)c(=O)c2c1` [TL4800025, N-(3-fluoro-4-((5-phenyl-7H-pyrrolo[2,3-d]pyrimidin-4-yl)oxy)phenyl)-2,6-dimethyl-4-oxo-1,4-dihydroquinoline-3-carboxamide] showed an IC50 of 557 nM. `CCn1c(C)c(C(=O)Nc2ccc(Oc3ncnc4[nH]cc(-c5ccccc5)c34)c(F)c2)c(=O)c2cc(C)ccc21` [TL4800067, 1-ethyl-N-(3-fluoro-4-(5-phenyl-7H-pyrrolo[2,3-d]pyrimidin-4-yloxy)phenyl)-2,6-dimethyl-4-oxo-1,4-dihydroquinoline-3-carboxamide] gave an IC50 of 146 nM. `CCCCn1c(C)c(C(=O)Nc2ccc(Oc3ncnc4[nH]cc(-c5ccccc5)c34)c(F)c2)c(=O)c2cc(C)ccc21` [TL4800080, 1-butyl-N-(3-fluoro-4-((5-phenyl-7H-pyrrolo[2,3-d]pyrimidin-4-yl)oxy)phenyl)-2,6-dimethyl-4-oxo-1,4-dihydroquinoline-3-carboxamide] showed an IC50 of 476 nM. Work on `CC1COc2c(N3CCN(C)CC3)c(F)cc3c(=O)c(C(=O)Nc4ccc(Oc5ncnc6[nH]cc(-c7ccccc7)c56)c(F)c4)cn1c23` (stereo not drawn) [TL4800088, 9-fluoro-N-(3-fluoro-4-((5-phenyl-7H-pyrrolo[2,3-d]pyrimidin-4-yl)oxy)phenyl)-3-methyl-10-(4-methylpiperazin-1-yl)-7-oxo-3,7-dihydro-2H-[1,4]oxazino[2,3,4-ij]quinoline-6-carboxamide] yielded an IC50 of 429 nM. For `O=C(Nc1ccc(Oc2ncnc3[nH]cc(-c4ccccc4)c23)c(F)c1)c1cn(C2CC2)c2cc(N3CCNCC3)c(F)cc2c1=O` [TL4800095, 1-cyclopropyl-6-fluoro-N-(3-fluoro-4-((5-phenyl-7H-pyrrolo[2,3-d]pyrimidin-4-yl)oxy)phenyl)-4-oxo-7-(piperazin-1-yl)-1,4-dihydroquinoline-3-carboxamide], the IC50 was 110 nM. In the case of `CCCn1c(C)c(C(=O)Nc2ccc(Oc3ncnc4[nH]cc(-c5ccccc5)c34)c(F)c2)c(=O)c2cc(C)ccc21` [TL4800104, N-(3-fluoro-4-(5-phenyl-7H-pyrrolo[2,3-d]pyrimidin-4-yloxy)phenyl)-2,6-dimethyl-4-oxo-1-propyl-1,4-dihydroquinoline-3-carboxamide], the IC50 is reported as 533 nM. Compound `CCCc1ccc2c(c1)c(=O)c(C(=O)Nc1ccc(Oc3ncnc4[nH]cc(-c5ccccc5)c34)c(F)c1)c(C)n2C` [TL4800116, N-(3-fluoro-4-((5-phenyl-7H-pyrrolo[2,3-d]pyrimidin-4-yl)oxy)phenyl)-1,2-dimethyl-4-oxo-6-propyl-1,4-dihydroquinoline-3-carboxamide] has an IC50 of 61 nM. With `CCc1c(C(=O)Nc2ccc(Oc3ncnc4[nH]cc(-c5ccccc5)c34)c(F)c2)c(=O)c2cc(C)ccc2n1C` [TL4800139, 2-ethyl-N-(3-fluoro-4-(5-phenyl-7H-pyrrolo[2,3-d]pyrimidin-4-yloxy)phenyl)-1,6-dimethyl-4-oxo-1,4-dihydroquinoline-3-carboxamide] the IC50 was 78 nM. For `Cc1ccc2c(c1)c(=O)c(C(=O)Nc1ccc(Oc3ncnc4[nH]cc(-c5ccccc5)c34)c(F)c1)c(-c1ccccc1)n2C` [TL4800144, N-(3-fluoro-4-(5-phenyl-7H-pyrrolo[2,3-d]pyrimidin-4-yloxy)phenyl)-1,6-dimethyl-4-oxo-2-phenyl-1,4-dihydroquinoline-3-carboxamide], the IC50 was 78 nM. Work on `CCc1ccc2c(c1)c(=O)c(C(=O)Nc1ccc(Oc3ncnc4[nH]ccc34)c(F)c1)c(C)n2C` [TL4800147] yielded an IC50 of 157 nM. For `Cc1cc2c3c(c1)c(=O)c(C(=O)Nc1ccc(Oc4ncnc5[nH]cc(-c6ccccc6)c45)c(F)c1)cn3CCC2` [TL4800160, N-(3-fluoro-4-((5-phenyl-7H-pyrrolo[2,3-d]pyrimidin-4-yl)oxy)phenyl)-9-methyl-1-oxo-1,5,6,7-tetrahydropyrido[3,2,1-ij]quinoline-2-carboxamide], the IC50 was 129 nM. `Cc1ccc2c(c1)c(=O)c(C(=O)Nc1ccc(Oc3ncnc4[nH]cc(-c5ccccc5)c34)c(F)c1)cn2C` [TL4800167, N-(3-fluoro-4-(5-phenyl-7H-pyrrolo[2,3-d]pyrimidin-4-yloxy)phenyl)-1,6-dimethyl-4-oxo-1,4-dihydroquinoline-3-carboxamide] showed an IC50 of 152 nM. `CCc1ccc2c(c1)c(=O)c(C(=O)Nc1ccc(Oc3ncnc4[nH]cc(-c5ccccc5)c34)c(F)c1)cn2C` [TL4800178, 6-ethyl-N-(3-fluoro-4-(5-phenyl-7H-pyrrolo[2,3-d]pyrimidin-4-yloxy)phenyl)-1-methyl-4-oxo-1,4-dihydroquinoline-3-carboxamide] was tested, and the IC50 was 56 nM. With `CCc1ccc2c(c1)c(=O)c(C(=O)Nc1ccc(Oc3ncnc4[nH]cc(-c5ccccc5)c34)cc1)c(C)n2C` [TL4830014, 6-ethyl-1,2-dimethyl-4-oxo-N-(4-((5-phenyl-7H-pyrrolo[2,3-d]pyrimidin-4-yl)oxy)phenyl)-1,4-dihydroquinoline-3-carboxamide] the IC50 was 105 nM. For `COc1cc2ncnc(Oc3ccc(NC(=O)c4cn(CCF)c5c(F)c(N6CCN(C)CC6)c(F)cc5c4=O)cc3F)c2cc1OC` [TL4830040, N-(4-(6,7-dimethoxyquinazolin-4-yloxy)-3-fluorophenyl)-6,8-difluoro-1-(2-fluoroethyl)-7-(4-methylpiperazin-1-yl)-4-oxo-1,4-dihydroquinoline-3-carboxamide], the IC50 was 224 nM. In the case of `COc1cc2ncnc(Oc3ccc(NC(=O)c4cn(C5CC5)c5c(F)c(N6CC(C)NC(C)C6)c(F)c(N)c5c4=O)cc3F)c2cc1OC` (stereo not drawn) [TL4830044, 5-amino-1-cyclopropyl-N-(4-(6,7-dimethoxyquinazolin-4-yloxy)-3-fluorophenyl)-7-(3,5-dimethylpiperazin-1-yl)-6,8-difluoro-4-oxo-1,4-dihydroquinoline-3-carboxamide], the IC50 is reported as 503 nM. `CCc1cc2c(=O)c(C(=O)Nc3ccc(Oc4ncnc5cc(OC)c(OC)cc45)c(F)c3)c(C)n(C)c2cc1N1CCN(C)CC1` [TL4830071, N-(4-(6,7-dimethoxyquinazolin-4-yloxy)-3-fluorophenyl)-6-ethyl-1,2-dimethyl-7-(4-methylpiperazin-1-yl)-4-oxo-1,4-dihydroquinoline-3-carboxamide] was tested, and the IC50 was 14.8 nM.

From patent US10683278B2 (JINAN UNIVERSITY, priority 2015, dated 2020)
